Results on 34 molecules are retold here after publication PMC11173529, “Structure–Activity Relationship Studies in a Series of Xanthine Inhibitors of SLACK Potassium Channels” (Molecules, 2024).

pIC50: −log10 of the molar value. Bounds are passed on as bounds.

The assay addresses T1, WT hSLACK (Homo sapiens, UniProt Q5JUK3).
T1 construct: host or cells: CHO-K1
T1 sequence (Q5JUK3 1-1235 isoform Q5JUK3-3): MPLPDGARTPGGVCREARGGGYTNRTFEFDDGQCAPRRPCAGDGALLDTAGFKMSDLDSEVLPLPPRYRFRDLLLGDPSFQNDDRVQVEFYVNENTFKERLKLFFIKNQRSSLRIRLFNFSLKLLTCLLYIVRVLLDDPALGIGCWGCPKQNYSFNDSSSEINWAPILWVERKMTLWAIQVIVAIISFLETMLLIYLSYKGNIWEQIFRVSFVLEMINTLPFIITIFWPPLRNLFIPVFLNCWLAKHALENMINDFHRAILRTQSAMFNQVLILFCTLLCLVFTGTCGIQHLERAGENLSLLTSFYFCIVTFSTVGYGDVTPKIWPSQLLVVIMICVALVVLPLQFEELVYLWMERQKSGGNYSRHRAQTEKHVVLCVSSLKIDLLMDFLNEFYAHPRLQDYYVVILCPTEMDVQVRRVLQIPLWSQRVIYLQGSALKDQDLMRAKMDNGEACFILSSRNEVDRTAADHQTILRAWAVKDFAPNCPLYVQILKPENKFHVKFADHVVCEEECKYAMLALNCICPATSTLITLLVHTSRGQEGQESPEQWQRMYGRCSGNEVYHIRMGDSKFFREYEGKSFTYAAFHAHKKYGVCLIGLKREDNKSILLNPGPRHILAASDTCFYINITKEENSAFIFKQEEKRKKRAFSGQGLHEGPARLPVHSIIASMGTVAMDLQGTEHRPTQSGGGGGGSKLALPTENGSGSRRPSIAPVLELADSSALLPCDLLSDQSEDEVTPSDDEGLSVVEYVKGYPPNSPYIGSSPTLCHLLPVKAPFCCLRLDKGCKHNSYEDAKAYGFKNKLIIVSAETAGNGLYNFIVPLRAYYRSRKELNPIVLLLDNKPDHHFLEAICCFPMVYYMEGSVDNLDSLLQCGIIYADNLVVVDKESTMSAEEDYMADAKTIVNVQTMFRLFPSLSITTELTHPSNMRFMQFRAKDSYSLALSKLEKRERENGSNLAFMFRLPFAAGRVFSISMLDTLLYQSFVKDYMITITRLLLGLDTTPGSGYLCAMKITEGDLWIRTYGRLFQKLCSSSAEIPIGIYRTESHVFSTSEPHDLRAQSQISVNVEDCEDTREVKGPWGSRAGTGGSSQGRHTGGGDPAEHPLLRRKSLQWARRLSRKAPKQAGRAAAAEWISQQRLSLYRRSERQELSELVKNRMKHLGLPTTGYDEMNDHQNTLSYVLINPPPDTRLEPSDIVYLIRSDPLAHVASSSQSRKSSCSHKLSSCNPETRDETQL
Put plainly: Whole-cell automated patch-clamp (APC) in CHO cells stably expressing WT hSLACK. The assay is classed as cell-based. The settings on record: for SLACK Imax: maximum inhibition at 30 µM test compound standardized to VU0606170 (set at 100%), WT hSLACK; for pIC50: whole-cell APC, CHO cells stably expressing WT hSLACK, averages n ≥ 3, read-out: SLACK IC50. The method, then: All new analogs were tested in our APC assay using CHO cells stably expressing WT SLACK using a concentration-response format with concentrations ranging from 0.125 to 30 μM in half-log steps and a minimum of three cells (replicates) per concentration series. […] Still, there were some notable results. For example, substitution at the 4-position was largely unfavorable regardless of the nature of the substituent (21, 24, 27, 30, and 33) apart from the 4-fluoro analog 18. […] As the trifluoromethyl group is similar in electronegativity to chlorine, but larger than both methyl and chlorine, perhaps the steric bulk of the trifluoromethyl is to blame for the poor potency of these analogs. With the exception of the fluoro (16–18) and cyano (28–30) analogs, substitution at the 3-position was favorable for SLACK activity, with 3-methoxy analog 32 standing out in this set.
Stably transfected monoclonal HEK293 cell lines expressing Slick, Maxi-K α1/β3, Maxi-K α1/β4, CaV3.2, GIRK 1/2, KV2.1, KV7.2, NaV1.7, and TASK-1 were generated as previously described. Stably transfected monoclonal HEK293 cell lines expressing hERG were generated as previously described. CHO-K1 cells expressing human Slack and disease-associated human Slack mutations, G288S and A934T, were generated by transfecting a PiggyBac TRE mammalian expression vector (VectorBuilder, Chicago, IL, USA) containing KCNT1. FuGENE 6 (Promega, Madison, WI, USA) transfection reagent and protocol, together with Opti-MEM (Thermo Fisher Scientific, Walkham, MA, USA), were utilized.
Automated patch-clamp recording was performed with a SyncroPatch 768 PE system (Nanion, Munich, Germany) as previously described. Whole-cell recordings were performed at room temperature. Cells were harvested by first washing with PBS without Mg^2+ or Ca^2+ (Gibco, Billings, MT, USA) to remove cell culture media, followed by dissociation with TryPLE (Gibco, Billings, MT, USA). Cells were then resuspended and diluted to 100,000 cells/mL in external solution. External solution contained 105 mM NaCl, 4 mM KCl, 1 mM MgCl2, 5 mM CaCl2, 10 mM HEPES, and 40 mM N-Methyl-D-glucamine chloride, titrated to pH of 7.4 and osmolarity of 300 mOsm/kg; internal solution contained 70 mM NaCl, 70 mM KF, 10 mM KCl, 5 mM EGTA, and 5 mM HEPES, titrated to a pH of 7.2 and osmolarity of 295 mOsm/kg.
The APC protocol was set as follows: Cells were held at a […] of −80 mV for 100 ms, then a ramp protocol was performed from −100 mV to 80 mV at 0.4 mV/ms, followed by holding the cell at −80 mV for another 100 ms, then steps were performed at −20 mV, 0 mV, +20 mV, +40 mV, and +60 mV for 100 ms of each step. Whole-cell currents were measured at 0 mV and normalized to current after external buffer addition. […] To obtain the concentration-response relationship graphs and IC50 values, we take the median value of the last 7 current amplitude values obtained for each set of data points collected for a given concentration at a particular step.
(The patch-clamp technique gives a direct electrical read-out from membranes.)

Broadly, the pIC50 is −log10 of the IC50, conventionally taken in molar units. In the case of `C[C@@H](c1ccccc1)N(C)c1nc2c(c(=O)n(Cc3ccccc3)c(=O)n2C)n1C` [Analog 66], the “SLACK Imax” value turned out to be 50% and the pIC50 is < 5.00.

Regarding `CN(Cc1ccccc1)c1nc2c(c(=O)n(Cc3cccc(F)c3)c(=O)n2C)n1C` [Analog 17], the “SLACK Imax” value is given as 100% and the negative logarithm of the IC50 (pIC50) is 5.80.

For `CN(Cc1ccccc1)c1nc2c(c(=O)n(Cc3ccccc3C(F)(F)F)c(=O)n2C)n1C` [Analog 25], the “SLACK Imax” value came out at 70% and the pIC50 is < 5.00.

As to `CN(Cc1ccccc1)c1nc2c(c(=O)n(Cc3cccc(C#N)c3)c(=O)n2C)n1C` [Analog 29], the “SLACK Imax” value was 100% and the pIC50 is 5.62.

Regarding `CN(Cc1ccccc1)c1nc2c(c(=O)n(Cc3ccc(Cl)cc3)c(=O)n2C)n1C` [Analog 21], the “SLACK Imax” value is reported as 100% and the negative-log IC50 (pIC50) was 5.59.

In the case of `CN(Cc1cccnc1)c1nc2c(c(=O)n(Cc3ccccc3)c(=O)n2C)n1C` [Analog 63], the “SLACK Imax” value is listed as 20% and the pIC50 is < 5.00.

Turning to `COc1ccccc1CN(C)c1nc2c(c(=O)n(Cc3ccccc3)c(=O)n2C)n1C` [Analog 59], the “SLACK Imax” value is on record as 101% and the pIC50 is 5.33.

`Cn1c(NCc2ccccc2)nc2c1c(=O)n(Cc1ccccc1)c(=O)n2C` [Analog 46a]: the “SLACK Imax” value is recorded as 88% and the negative-log IC50 (pIC50) was 5.22.

Take `CN(Cc1ccccc1)c1nc2c(c(=O)n(Cc3ccccc3F)c(=O)n2C)n1C` [Analog 16]: the “SLACK Imax” value turned out to be 100% and the negative-log IC50 (pIC50) was 5.74.

Regarding `CCCn1c(N(C)Cc2ccccc2)nc2c1c(=O)n(Cc1ccccc1)c(=O)n2C` [Analog 42], the “SLACK Imax” value came out at 94% and the negative logarithm of the IC50 (pIC50) was < 5.00.

`Cc1ccc(Cn2c(=O)c3c(nc(N(C)Cc4ccccc4)n3C)n(C)c2=O)cc1` [Analog 24]: the “SLACK Imax” value was found to be 102% and the pIC50 was 5.26.

For the molecule `CN(Cc1ccccc1)c1nc2c(c(=O)n(Cc3cccc(C(F)(F)F)c3)c(=O)n2C)n1C` [Analog 26], the “SLACK Imax” value worked out at 100% and the negative-log IC50 (pIC50) is 5.38.

Turning to `Cc1cccc(CN(C)c2nc3c(c(=O)n(Cc4ccccc4)c(=O)n3C)n2C)c1` [Analog 54], the “SLACK Imax” value stood at 100% and the pIC50 is 5.70.

Turning to `CN(Cc1ccccc1)c1nc2c(c(=O)n(Cc3cccc(Cl)c3)c(=O)n2C)n1C` [Analog 20], the “SLACK Imax” value worked out at 100% and the pIC50 was 5.72.

Regarding `Cc1ccccc1CN(C)c1nc2c(c(=O)n(Cc3ccccc3)c(=O)n2C)n1C` [Analog 53], the “SLACK Imax” value was determined as 100% and the negative-log IC50 (pIC50) is 5.00.

As for `CN(Cc1ccccc1C(F)(F)F)c1nc2c(c(=O)n(Cc3ccccc3)c(=O)n2C)n1C` [Analog 56], the “SLACK Imax” value is 100% and the negative-log IC50 (pIC50) was 5.72.

`C[C@H](c1ccccc1)N(C)c1nc2c(c(=O)n(Cc3ccccc3)c(=O)n2C)n1C` [Analog 65]: the “SLACK Imax” value came out at 100% and the pIC50 was 5.80.

With `CCN(Cc1ccccc1)c1nc2c(c(=O)n(Cc3ccccc3)c(=O)n2C)n1C` [Analog 67], the “SLACK Imax” value is given as 100% and the pIC50 was 5.85.

Turning to `CN(Cc1ccccc1)c1nc2c(c(=O)n(Cc3ccc(C(F)(F)F)cc3)c(=O)n2C)n1C` [Analog 27], the “SLACK Imax” value worked out at 79% and the negative logarithm of the IC50 (pIC50) was 5.01.

Turning to `Cn1c(N2CCc3ccccc3C2)nc2c1c(=O)n(Cc1ccccc1)c(=O)n2C` [Analog 75], the “SLACK Imax” value is 100% and the negative-log IC50 (pIC50) is 5.55.

Consider `Cc1ccccc1Cn1c(=O)c2c(nc(N(C)Cc3ccccc3)n2C)n(C)c1=O` [Analog 22], for which the “SLACK Imax” value is recorded as 100% and the pIC50 is 5.80.

For the molecule `CN(Cc1ccc(Cl)cc1)c1nc2c(c(=O)n(Cc3ccccc3)c(=O)n2C)n1C` [Analog 52], the “SLACK Imax” value came to 100% and the pIC50 is 5.64.

Turning to `CN(Cc1ccccc1)c1nc2c(c(=O)n(Cc3ccccc3)c(=O)n2C)n1CC1CC1` [Analog 43], the “SLACK Imax” value turned out to be 55% and the pIC50 is < 5.00.

In the case of `CN(Cc1ccccc1)c1nc2c(c(=O)n(Cc3ccccc3C#N)c(=O)n2C)n1C` [Analog 28], the “SLACK Imax” value came to 99% and the pIC50 is 5.60.

In the case of `CCCN(Cc1ccccc1)c1nc2c(c(=O)n(Cc3ccccc3)c(=O)n2C)n1C` [Analog 68], the “SLACK Imax” value is listed as 100% and the negative logarithm of the IC50 (pIC50) was 5.89.

For the molecule `COc1cccc(CN(C)c2nc3c(c(=O)n(Cc4ccccc4)c(=O)n3C)n2C)c1` [Analog 60], the “SLACK Imax” value was 100% and the negative-log IC50 (pIC50) is 5.57.

For the molecule `Cn1c(CCc2ccccc2)nc2c1c(=O)n(Cc1ccccc1)c(=O)n2C` [Analog 77], the “SLACK Imax” value was 103% and the negative logarithm of the IC50 (pIC50) is 5.15.

`COc1ccccc1Cn1c(=O)c2c(nc(N(C)Cc3ccccc3)n2C)n(C)c1=O` [Analog 31]: the “SLACK Imax” value is given as 100% and the negative logarithm of the IC50 (pIC50) was 5.89.

As to `CN(Cc1ccccc1)c1nc2c(c(=O)n(Cc3ccc(F)cc3)c(=O)n2C)n1C` [Analog 18], the “SLACK Imax” value was found to be 100% and the negative-log IC50 (pIC50) is 5.89.

For the molecule `Cc1ccc(CN(C)c2nc3c(c(=O)n(Cc4ccccc4)c(=O)n3C)n2C)cc1` [Analog 55], the “SLACK Imax” value was found to be 100% and the negative logarithm of the IC50 (pIC50) was 5.74.

With `CC(C)N(Cc1ccccc1)c1nc2c(c(=O)n(Cc3ccccc3)c(=O)n2C)n1C` [Analog 69], the “SLACK Imax” value worked out at 100% and the negative logarithm of the IC50 (pIC50) was 5.47.

As to `CN(Cc1ccccc1)c1nc2c(c(=O)n(Cc3ccccc3)c(=O)n2C)n1C` [Analog 8], the “SLACK Imax” value came to 100% and the negative-log IC50 (pIC50) is 5.77.

Regarding `CN(Cc1ccccc1)c1nc2c(c(=O)n(Cc3ccc(C#N)cc3)c(=O)n2C)n1C` [Analog 30], the “SLACK Imax” value is listed as 100% and the pIC50 was 5.62.

As for `CN(Cc1ccc(C(F)(F)F)cc1)c1nc2c(c(=O)n(Cc3ccccc3)c(=O)n2C)n1C` [Analog 58], the “SLACK Imax” value amounted to 100% and the pIC50 is 5.72.
